Measured values published in patent publication US11078193B2 (priority 2014, dated 2021).

Assays:
[1] = Cytotoxicity, HepG2 cells, Resazurin assay; format: cell-based; conditions: human
[2] = tested on: HBV; test: anti HBV activity, HepG2.117 inducibly HBV producing cell line (Tet-off), intracellular HBV DNA by realtime PCR; format: cell-based; conditions: Hepatitis B virus, 72 h, HepG2.117 cells, 3 days of treatment

Row | Compound | CC50 at 4 days [1] | EC50 [2]
1 | Cc1cc(NC(=O)c2c(F)c(S(=O)(=O)NC3(C(F)(F)F)CCC3)cn2C)cc(C#N)n1 [Compound 171, N-(2-cyano-6-methyl-4-pyridyl)-3-fluoro-1-methyl-4-[[1-(trifluoromethyl)cyclobutyl]sulfamoyl]pyrrole-2-carboxamide] | > 25000 nM | 100 nM
2 | C[C@@H](NS(=O)(=O)c1cn(C)c(C(=O)Nc2c(F)c(F)nc(F)c2Cl)c1Cl)C(F)(F)F [Compound 187, 3-chloro-N-(3-chloro-2,5,6-trifluoro-4-pyridyl)-1-methyl-4-[[(1R)-2,2,2-trifluoro-1-methyl-ethyl]sulfamoyl]pyrrole-2-carboxamide] | > 25000 nM | 710 nM
3 | Cn1cc(S(=O)(=O)NC2(C)CC(F)(F)C2)c(Cl)c1C(=O)Nc1ccnc(C(F)(F)F)c1 [Compound 66, 3-chloro-4-[(3,3-difluoro-1-methyl-cyclobutyl)sulfamoyl]-1-methyl-N-[2-(trifluoromethyl)-4-pyridyl]pyrrole-2-carboxamide] | > 25000 nM | 90 nM
4 | C[C@@H](NS(=O)(=O)c1cn(C)c(C(=O)Nc2cnc(F)c(F)c2)c1Cl)C(F)(F)F [Compound 57, 3-chloro-N-(5,6-difluoro-3-pyridyl)-1-methyl-4-[[(1R)-2,2,2-trifluoro-1-methyl-ethyl]sulfamoyl]pyrrole-2-carboxamide] | > 25000 nM | 60 nM
5 | C[C@@H](NS(=O)(=O)c1cn(C)c(C(=O)Nc2ccnc(Cl)c2F)c1Cl)C(C)(F)F [Compound 107, 3-chloro-N-(2-chloro-3-fluoro-4-pyridyl)-4-[[(1R)-2,2-difluoro-1-methyl-propyl]sulfamoyl]-1-methyl-pyrrole-2-carboxamide] | > 25000 nM | 20 nM
6 | CC(O)C(C)NS(=O)(=O)c1cn(C)c(C(=O)Nc2ccnc(Cl)c2)c1Cl (racemic) [Compound 90, (+/−)-3-chloro-N-(2-chloro-4-pyridyl)-4-[(2-hydroxy-1-methyl-propyl)sulfamoyl]-1-methyl-pyrrole-2-carboxamide] | > 25000 nM | 450 nM
7 | Cn1cc(S(=O)(=O)NC2(C(F)(F)F)CCC2)c(F)c1C(=O)Nc1cc(Cl)nc(C#N)c1 [Compound 121, N-(2-chloro-6-cyano-4-pyridyl)-3-fluoro-1-methyl-4-[[1-(trifluoromethyl)cyclobutyl]sulfamoyl]pyrrole-2-carboxamide] | > 25000 nM | 40 nM
8 | Cc1cc(NC(=O)c2c(F)c(S(=O)(=O)NC3(C(F)(F)F)CCC3)cn2C)cc(Br)n1 [Compound 164, N-(2-bromo-6-methyl-4-pyridyl)-3-fluoro-1-methyl-4-[[1-(trifluoromethyl)cyclobutyl]sulfamoyl]pyrrole-2-carboxamide] | > 25000 nM | 40 nM
9 | CC[C@@H](C)NS(=O)(=O)c1cn(C)c(C(=O)Nc2ccnc(Cl)c2)c1F [Compound 69, N-(2-chloro-4-pyridyl)-3-fluoro-1-methyl-4-[[(1R)-1-methylpropyl]sulfamoyl]pyrrole-2-carboxamide] | > 25000 nM | 30 nM
10 | Cc1cc(NC(=O)c2c(Cl)c(S(=O)(=O)NC3(C)CC(F)(F)C3)cn2C)cc(F)n1 [Compound 163, 3-chloro-4-[(3,3-difluoro-1-methyl-cyclobutyl)sulfamoyl]-N-(2-fluoro-6-methyl-4-pyridyl)-1-methyl-pyrrole-2-carboxamide] | > 25000 nM | 20 nM
11 | C[C@@H](NS(=O)(=O)c1cn(C)c(C(=O)Nc2c(Cl)c(F)nc(F)c2Cl)c1Cl)C(F)(F)F [Compound 186, 3-chloro-N-(3,5-dichloro-2,6-difluoro-4-pyridyl)-1-methyl-4-[[(1R)-2,2,2-trifluoro-1-methyl-ethyl]sulfamoyl]pyrrole-2-carboxamide] | > 25000 nM | 10500 nM
12 | Cn1cc(S(=O)(=O)NC2(C(F)(F)F)CCC2)c(F)c1C(=O)Nc1ccnc(F)c1 [Compound 169, 3-fluoro-N-(2-fluoro-4-pyridyl)-1-methyl-4-[[1-(trifluoromethyl)cyclobutyl]sulfamoyl]pyrrole-2-carboxamide] | > 25000 nM | 30 nM
13 | C[C@@H](NS(=O)(=O)c1cn(C)c(C(=O)Nc2ccc(F)c(C#N)n2)c1Cl)C(F)(F)F [Compound 156, 3-chloro-N-(6-cyano-5-fluoro-2-pyridyl)-1-methyl-4-[[(1R)-2,2,2-trifluoro-1-methyl-ethyl]sulfamoyl]pyrrole-2-carboxamide] | > 25000 nM | 140 nM
14 | C[C@H](NS(=O)(=O)c1cn(C)c(C(=O)Nc2ccnc(C(F)(F)F)c2)c1F)C(C)(F)F [Compound 62, 4-[[(1S)-2,2-difluoro-1-methyl-propyl]sulfamoyl]-3-fluoro-1-methyl-N-[2-(trifluoromethyl)-4-pyridyl]pyrrole-2-carboxamide] | > 25000 nM | 190 nM
15 | CC[C@@H](C)NS(=O)(=O)c1cn(C)c(C(=O)Nc2ccnc(C#N)c2)c1F [Compound 67] | > 25000 nM | 30 nM
16 | Cc1cc(NC(=O)c2c(F)c(S(=O)(=O)N[C@H](C)C(C)(F)F)cn2C)cc(Br)n1 [Compound 157, N-(2-bromo-6-methyl-4-pyridyl)-4-[[(1R)-2,2-difluoro-1-methyl-propyl]sulfamoyl]-3-fluoro-1-methyl-pyrrole-2-carboxamide] | > 25000 nM | 90 nM

Row | Compound | CC50 at 4 days [1] | EC50 [2]
17 | CC[C@@H](C)NS(=O)(=O)c1cn(C)c(C(=O)Nc2ccnc(C(F)(F)F)c2)c1F [Compound 68, 3-fluoro-1-methyl-4-[[(1R)-1-methylpropyl]sulfamoyl]-N-[2-(trifluoromethyl)-4-pyridyl]pyrrole-2-carboxamide] | > 25000 nM | 50 nM
18 | Cn1cc(S(=O)(=O)NC2(C(F)(F)F)CC2)cc1C(=O)Nc1ccnc(Cl)c1 [Compound 52, N-(2-chloro-4-pyridyl)-1-methyl-4-[[1-(trifluoromethyl)cyclopropyl]-sulfamoyl]pyrrole-2-carboxamide] | > 25000 nM | 80 nM
19 | Cn1cc(S(=O)(=O)NC2(C)CC(F)(F)C2)c(F)c1C(=O)Nc1ccnc(Cl)c1 [Compound 54, N-(2-chloro-4-pyridyl)-4-[(3,3-difluoro-1-methyl-cyclobutyl)sulfamoyl]-3-fluoro-1-methyl-pyrrole-2-carboxamide] | > 25000 nM | 20 nM
20 | Cn1cc(S(=O)(=O)NC2(C)CC(F)(F)C2)c(F)c1C(=O)Nc1ccnc(Br)c1F [Compound 131, N-(2-bromo-3-fluoro-4-pyridyl)-4-[(3,3-difluoro-1-methyl-cyclobutyl)sulfamoyl]-3-fluoro-1-methyl-pyrrole-2-carboxamide] | > 25000 nM | 20 nM
21 | Cn1cc(S(=O)(=O)NC2(C(F)(F)F)CCC2)c(Cl)c1C(=O)Nc1ccnc(F)c1 [Compound 111, 3-chloro-N-(2-fluoro-4-pyridyl)-1-methyl-4-[[1-(trifluoromethyl)cyclobutyl]sulfamoyl]pyrrole-2-carboxamide] | > 25000 nM | 30 nM
22 | C[C@@H](NS(=O)(=O)c1cn(C)c(C(=O)Nc2nc(F)c(F)cc2F)c1Cl)C(F)(F)F [Compound 184, 3-chloro-1-methyl-4-[[(1R)-2,2,2-trifluoro-1-methyl-ethyl]sulfamoyl]-N-(3,5,6-trifluoro-2-pyridyl)pyrrole-2-carboxamide] | > 25000 nM | 1200 nM
23 | Cn1cc(S(=O)(=O)NC2(C)CC(F)(F)C2)c(F)c1C(=O)Nc1ccnc(F)c1 [Compound 133, 4-[(3,3-difluoro-1-methyl-cyclobutyl)sulfamoyl]-3-fluoro-N-(2-fluoro-4-pyridyl)-1-methyl-pyrrole-2-carboxamide] | > 25000 nM | 50 nM
24 | Cn1cc(S(=O)(=O)NC2(C(F)(F)F)CCC2)c(F)c1C(=O)Nc1ccnc(F)c1F [Compound 170, N-(2,3-difluoro-4-pyridyl)-3-fluoro-1-methyl-4-[[1-(trifluoromethyl)cyclobutyl]sulfamoyl]pyrrole-2-carboxamide] | > 25000 nM | 40 nM
25 | Cn1cc(S(=O)(=O)NC2(CO)COC2)c(Cl)c1C(=O)Nc1ccnc(Cl)c1 [Compound 92] | > 25000 nM | 440 nM
26 | Cn1cc(S(=O)(=O)NC2(C(F)(F)F)CCC2)c(F)c1C(=O)Nc1ccnc(C(F)F)c1 [Compound 119, N-[2-(difluoromethyl)-4-pyridyl]-3-fluoro-1-methyl-4-[[1-(trifluoromethyl)cyclobutyl]sulfamoyl]pyrrole-2-carboxamide] | > 25000 nM | 5 nM
27 | C[C@@H](NS(=O)(=O)c1cn(C)c(C(=O)Nc2ccc(F)c(Br)n2)c1Cl)C(F)(F)F [Compound 76, N-(6-bromo-5-fluoro-2-pyridyl)-3-chloro-1-methyl-4-[[(1R)-2,2,2-trifluoro-1-methyl-ethyl]sulfamoyl]pyrrole-2-carboxamide] | > 25000 nM | 50 nM
28 | C[C@@H](NS(=O)(=O)c1cn(C)c(C(=O)Nc2ccc(F)c(Cl)n2)c1Cl)C(F)(F)F [Compound 75, 3-chloro-N-(6-chloro-5-fluoro-2-pyridyl)-1-methyl-4-[[(1R)-2,2,2-trifluoro-1-methyl-ethyl]sulfamoyl]pyrrole-2-carboxamide] | > 25000 nM | 60 nM
29 | Cn1cc(S(=O)(=O)NC2(C(F)(F)F)CCC2)c(F)c1C(=O)Nc1ccnc(C(F)F)c1F [Compound 165, N-[2-(difluoromethyl)-3-fluoro-4-pyridyl]-3-fluoro-1-methyl-4-[[1-(trifluoromethyl)cyclobutyl]sulfamoyl]pyrrole-2-carboxamide] | > 25000 nM | 3 nM
30 | CC[C@@H](NS(=O)(=O)c1cn(C)c(C(=O)Nc2ccnc(Cl)c2F)c1Cl)C(F)(F)F [Compound 112, 3-chloro-N-(2-chloro-3-fluoro-4-pyridyl)-1-methyl-[[(1R)-1-(trifluoromethyl)propyl]sulfamoyl]pyrrole-2-carboxamide] | > 25000 nM | 20 nM
31 | C[C@@H](NS(=O)(=O)c1cn(C)c(C(=O)Nc2cc(F)nc(F)c2F)c1Cl)C(F)(F)F [Compound 43, 3-chloro-1-methyl-4-[[(1R)-2,2,2-trifluoro-1-methyl-ethyl]sulfamoyl]-N-(2,3,6-trifluoro-4-pyridyl)pyrrole-2-carboxamide] | > 25000 nM | 80 nM
